#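 Briefly, cells in 96-well plates were exposed to five compound concentrations for 48 h, and endpoints were estimated by linear interpolation. GI50 is the concentration that inhibits growth by half.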 Calls of active or inactive are those of the source. Rule as the data show it: active = GI50 up to about 1.1 µM and inactive = higher.
# How the values were obtained:
# Test in all cases: NCI anticancer screen, dose series, 48 h
# CCRF-CEM = test system: CCRF-CEM
# DU-145 = test system: DU-145
# HCT-15 = test system: HCT-15
# HOP-92 = test system: HOP-92
# HT-29 = test system: HT-29
# IGROV-1 = test system: IGROV-1
# KM12 = test system: KM12
# MDA-MB-231 = test system: MDA-MB-231
# Malme-3M = test system: Malme-3M
# OVCAR-3 = test system: OVCAR-3
# OVCAR-5 = test system: OVCAR-5
# SK-MEL-5 = test system: SK-MEL-5
# SK-OV-3 = test system: SK-OV-3
# SN12C = test system: SN12C
# SW-620 = test system: SW-620
# TK-10 = test system: TK-10
# UACC-62 = test system: UACC-62
# CAKI-1 = test system: CAKI-1
# NCI-H460 = test system: NCI-H460
# SF-539 = test system: SF-539
Compound,GI50 (CCRF-CEM),GI50 (DU-145),GI50 (HCT-15) [µM],GI50 (HOP-92),GI50 (HT-29),GI50 (IGROV-1),GI50 (KM12),GI50 (MDA-MB-231),GI50 (Malme-3M),GI50 (OVCAR-3),GI50 (OVCAR-5),GI50 (SK-MEL-5),GI50 (SK-OV-3),GI50 (SN12C),GI50 (SW-620),GI50 (TK-10),GI50 (UACC-62),GI50 (CAKI-1),GI50 (NCI-H460),GI50 (SF-539)
O=C1/C(=C/c2cccs2)NC(=S)N1CN1CCCC(CO)C1 (stereo not given),> 100 µM (inactive),> 100 µM (inactive),> 100,> 100 µM (inactive),> 100 µM (inactive),> 100 µM (inactive),> 100 µM (inactive),> 100 µM (inactive),> 100 µM (inactive),> 100 µM (inactive),> 100 µM (inactive),> 100 µM (inactive),> 100 µM (inactive),> 100 µM (inactive),> 100 µM (inactive),> 100 µM (inactive),> 100 µM (inactive),–,–,–
CCN(CCCOc1ccccc1)CCN(CC)CCCOc1ccccc1,0.71 µM (active),10.9 µM (inactive),10.4,–,7.59 µM (inactive),10.9 µM (inactive),12.2 µM (inactive),16.1 µM (inactive),15.8 µM (inactive),14.8 µM (inactive),17 µM (inactive),2.22 µM (inactive),–,20 µM (inactive),20.8 µM (inactive),12.7 µM (inactive),14.2 µM (inactive),16.4 µM (inactive),8.38 µM (inactive),10.7 µM (inactive)
CCOC(=O)Oc1ccc2c(c1)c(=O)c1c(NCCN(CC)CC)ccc3nnn2c31,0.172 µM (active),1.89 µM (inactive),0.841,4.22 µM (inactive),1.29 µM (inactive),0.519 µM (active),2.32 µM (inactive),2.48 µM (inactive),2.78 µM (inactive),4.46 µM (inactive),10.6 µM (inactive),1.7 µM (inactive),8 µM (inactive),0.809 µM (active),0.438 µM (active),3.19 µM (inactive),11.5 µM (inactive),–,< 0.0209 µM (active),0.748 µM (active)
CCOC(=O)C1(Cc2ccc3c(c2)CCC3)Cc2cc3c(cc2C1)CCC3,13.9 µM (inactive),53 µM (inactive),32,–,6.46 µM (inactive),46.8 µM (inactive),40.7 µM (inactive),28.1 µM (inactive),27.2 µM (inactive),32.4 µM (inactive),45.6 µM (inactive),–,24.7 µM (inactive),27.8 µM (inactive),23.9 µM (inactive),> 100 µM (inactive),30.6 µM (inactive),45.7 µM (inactive),27.5 µM (inactive),29.7 µM (inactive)
COc1ccc(Nc2nc3ccc(C(F)(F)F)cc3nc2C(=O)O)cc1OC,–,28.6 µM (inactive),25.9,–,38.4 µM (inactive),34.3 µM (inactive),16.9 µM (inactive),37.9 µM (inactive),31.7 µM (inactive),17.9 µM (inactive),47 µM (inactive),20.1 µM (inactive),–,34.9 µM (inactive),29.2 µM (inactive),–,21.7 µM (inactive),39.5 µM (inactive),21.2 µM (inactive),–
O=[N+]([O-])c1cccc(-c2nc(-c3ccccc3)c(-c3ccccc3)[nH]2)c1,> 100 µM (inactive),> 100 µM (inactive),–,–,–,> 100 µM (inactive),–,> 100 µM (inactive),> 100 µM (inactive),> 100 µM (inactive),> 100 µM (inactive),> 100 µM (inactive),> 100 µM (inactive),> 100 µM (inactive),> 100 µM (inactive),> 100 µM (inactive),> 100 µM (inactive),> 100 µM (inactive),> 100 µM (inactive),> 100 µM (inactive)
C[N+]1(C)C2Cc3ccccc3C1Cc1ccccc12,> 100 µM (inactive),> 100 µM (inactive),> 100,61.1 µM (inactive),> 100 µM (inactive),> 100 µM (inactive),> 100 µM (inactive),> 100 µM (inactive),> 100 µM (inactive),90.8 µM (inactive),> 100 µM (inactive),> 100 µM (inactive),> 100 µM (inactive),> 100 µM (inactive),> 100 µM (inactive),> 100 µM (inactive),71.6 µM (inactive),–,> 100 µM (inactive),> 100 µM (inactive)
O=C1OC[C@H]2[C@@H]1[C@H]1O[C@@H]2C2=C(CCC2)C1=O,> 100 µM (inactive),> 100 µM (inactive),> 100,> 100 µM (inactive),> 100 µM (inactive),> 100 µM (inactive),> 100 µM (inactive),> 100 µM (inactive),> 100 µM (inactive),> 100 µM (inactive),> 100 µM (inactive),> 100 µM (inactive),> 100 µM (inactive),> 100 µM (inactive),> 100 µM (inactive),> 100 µM (inactive),> 100 µM (inactive),–,> 100 µM (inactive),> 100 µM (inactive)
NC(=O)c1csc(C2OC(CO)C(O)C2O)n1 (stereo not given),7.8 µM (inactive),179 µM (inactive),4.14,115 µM (inactive),40.3 µM (inactive),42.4 µM (inactive),48.4 µM (inactive),84.9 µM (inactive),1640 µM (inactive),19.6 µM (inactive),436 µM (inactive),96.8 µM (inactive),61.8 µM (inactive),379 µM (inactive),13.8 µM (inactive),237 µM (inactive),42.6 µM (inactive),–,225 µM (inactive),20.3 µM (inactive)
CC(=O)N1C(=O)c2cc3ccccc3cc21,78.2 µM (inactive),> 100 µM (inactive),90.2,62.7 µM (inactive),–,38.8 µM (inactive),–,> 100 µM (inactive),–,–,> 100 µM (inactive),> 100 µM (inactive),> 100 µM (inactive),> 100 µM (inactive),> 100 µM (inactive),> 100 µM (inactive),> 100 µM (inactive),–,> 100 µM (inactive),> 100 µM (inactive)
C[NH+]1[C@@H](Cc2ccccc2)C(=O)O[B-]1(F)c1ccccc1 (stereo not given in full),> 100 µM (inactive),> 100 µM (inactive),> 100,> 100 µM (inactive),> 100 µM (inactive),> 100 µM (inactive),–,> 100 µM (inactive),> 100 µM (inactive),> 100 µM (inactive),> 100 µM (inactive),> 100 µM (inactive),> 100 µM (inactive),> 100 µM (inactive),> 100 µM (inactive),> 100 µM (inactive),> 100 µM (inactive),–,> 100 µM (inactive),–
Cc1ccc(S(=O)(=O)N(CCNC(=O)c2cccc(O)c2O)c2cc3c4c(c2)Oc2cccc5c2C4(C)c2c(cccc2O3)O5)cc1,–,> 100 µM (inactive),> 100,–,> 100 µM (inactive),5.93 µM (inactive),> 100 µM (inactive),21.7 µM (inactive),29.2 µM (inactive),6.52 µM (inactive),64.7 µM (inactive),22.1 µM (inactive),57.1 µM (inactive),> 100 µM (inactive),14.6 µM (inactive),> 100 µM (inactive),20.8 µM (inactive),> 100 µM (inactive),> 100 µM (inactive),73.3 µM (inactive)

# From ChEMBL document CHEMBL1201862, “PubChem BioAssay data set” (2004)
